What was measured:
[1] = system: patients suffering from hypoalbuminaemia (serum albumin value less than 3.0 g/dL); test: Clinical test: serum albumin values in patients suffering from hypoalbuminaemia; format: in vivo, human
Procedure: The compound of the present invention (Compound 21 ) was administered to 6 patients suffering from hypoalbuminaemia (serum albumin value was less than 3.0 g/dL) at the dose of 200 mg/day (dosage for only Patient 1 was 400 mg/day). Serum albumin values were compared between before and after administration for 24 weeks (after 16 weeks in case of only Patient 2). […] In another case of tested subjects showing a normal value of serum albumin, any change of the value was not noted by the administration of the compounds of the present invention.

patients = test: Clinical tests: toxicity and side effects; format: in vivo, human; conditions: clinically confirmed

**Q.** How did the “Effect on serum albumin values (in words)” value ([1]; 6 patients with hypoalbuminaemia, 200 mg/day (Patient 1: 400 mg/day), 24 weeks (Patient 2: 16 weeks), paired t-test) turn out when `CN1C(=O)NC(=O)C1O` (stereo not drawn) [Compound 21, 5-Hydroxy-1-methylhydantoin] was run?
**A.** Its value is “significantly increased”.

**Q.** And the “Serum albumin value After Administration for 24 weeks” value ([1]; Patient 1, 400 mg/day, 24 weeks, before administration 1.7 g/dL)?
**A.** The value was 2.1 g/dL.

**Q.** And the “Serum albumin value After Administration for 24 weeks” value ([1]; Patient 2, 200 mg/day, after 16 weeks according to text, before administration 2.0 g/dL)?
**A.** Its value is 2.3 g/dL.

**Q.** And the “Serum albumin value After Administration for 24 weeks” value ([1]; Patient 3, 200 mg/day, 24 weeks, before administration 2.3 g/dL)?
**A.** The value was 3.4 g/dL.

**Q.** And the “Serum albumin value After Administration for 24 weeks” value ([1]; Patient 4, 200 mg/day, 24 weeks, before administration 2.4 g/dL)?
**A.** The value was 2.7 g/dL.

**Q.** And the “Serum albumin value After Administration for 24 weeks” value ([1]; Patient 5, 200 mg/day, 24 weeks, before administration 2.5 g/dL)?
**A.** Its value is 3.2 g/dL.

**Q.** And the “Serum albumin value After Administration for 24 weeks” value ([1]; Patient 6, 200 mg/day, 24 weeks, before administration 2.7 g/dL)?
**A.** The value was 3.0 g/dL.

**Q.** And the “Serum albumin value After Administration for 24 weeks, Mean Value” ([1]; mean of 6 patients, before administration 2.3 ± 0.2 g/dL, p < 0.01, paired t-test)?
**A.** Its value is 2.8 ± 0.2 g/dL.

**Q.** What about the “Toxicity and side effects (in words)” value (patients) of the same compound?
**A.** The value was “low toxicity and lower side effects”.
